Data published in US6916970B2, “Transgenic plants comprising antifungal polypeptides from alfalfa and methods for controlling plant pathogenic fungi” (Monsanto Technology, LLC, priority 1996, dated 2005).

Tests used:
Fusarium culmorum = assay: Inhibition of fungal hyphal growth (microscopic hyphal length assay); type: cell-based; conditions: F. culmorum
Experimental: (§1) The antifungal activity of AlfAFP1 (SEQ ID NO:2) is expressed as the concentration in μg/ml required to cause 50% inhibition of fungal hyphal growth (IC50). Percent fungal hyphal growth inhibition is defined as […] of the average hyphae length in the test sample culture divided by the average hyphae length in the control culture in which buffer is added in place of the polypeptide sample.
(§2) The antifungal activity of AlfAFP1 was determined by measuring the inhibition of fungal hyphal length of a number of different fungi in the presence of this polypeptide under an inverted microscope. Fungal spores (2×10^4 spores/ml) were allowed to germinate for 5 to 15 hours, depending on the fungus used in the test, in 50 μl of double strength testing medium. […] For studies on the antagonistic effect of cations, CaCl2 and KCl were added to final concentrations of 1 mM and 50 mM, respectively. This salt-supplemented medium is referred to as “high salt medium,” and the original medium is referred to as “low salt medium.” After spore germination, 50 μl of a filter-sterilized solution of polypeptide in distilled water were added to the testing well containing the germinated spores, and the mixture was incubated for 15 to 24 hours at 24° C. AlfAFP1 was tested in a concentration range from 0 to 80 μg/ml to determine IC50 values. Polypeptide concentrations were determined using the BCA protein assay kit obtained from Pierce (Rockford, Ill.).

Verticillium dahliae [1] = assay: as above; type: cell-based; conditions: V. dahliae
Experimental: as §1, §2

Verticillium dahliae [2] = assay: Verticillium wilt disease test on transgenic potato plants expressing AlfAFP1; type: in vivo, potato plants (Solanum tuberosum var. Russet Burbank)
Experimental: Conidia and mycelia of a 2-3 week old culture of virulent Verticillium dahliae were used to inoculate a PDA (potatoes, 200 g/l; Bacto dextrose, 20 g/l; and Bacto agar, 15 g/l) Petri plate. This culture was allowed to grow at 22° C. for 4-5 days. Conidia were then harvested by washing the culture plate with sterile distilled water and filtering the liquid through two layers of cheesecloth. The conidial spore concentration was determined using a hemacytometer, and adjusted to 1×10^6 conidia/ml with sterile distilled water.
Transgenic and non-transgenic potato plants were grown from stem cuttings under sterile conditions as described above in plastic cups containing 50 mls of PM-agar medium. When plants were about 1-2 inches tall, they were removed from the medium and their roots were dipped in the spore suspension (Joaquim et al., 1991). The inoculated plants were then transplanted into 6-inch pots containing Metro-Mix 350 soil. After transplanting, each plant received an additional 5 mls of the spore suspension (1×10^6 condida/ml) on the soil surface around the base of the stem. The pots were placed in a growth chamber under the following conditions: temperature at 20° C., light intensity at […], 12 hr day/12 hr night light cycle, subirrigation with water 2 times/day, 20 minutes soaking each time. Four weeks after inoculation, the plants were scored for disease severity on a scale of 0-100% (Horsfall et al., 1945). To develop a disease progress curve over time, plants were rated once a week for at least 8 weeks.
Twenty-one independent transgenic potato lines expressing AlfAFP1 were tested for resistance to Verticillium wilt disease. […]
Table 2 summarizes the qualitative protein expression data for each of the lines, and the disease severity rating of each individual line in the Verticillium wilt disease test determined at 46 days post inoculation. […]

[3] = high salt medium (1 mM CaCl2 and 50 mM KCl added)

Substance: AlfAFP1: antifungal polypeptide of 45 amino acids isolated from alfalfa (Medicago) seed, SEQ ID NO:2, about 5,186 daltons (RTCENLADKYRGPCFSGCDTHCTTKENAVSGRCRDDFRCWCTKRC; Alfalfa)
- IC50 (concentration required to cause 50% inhibition of fungal hyphal growth), High salt (Fusarium culmorum; [3]): 15 µg/mL
- IC50 (concentration required to cause 50% inhibition of fungal hyphal growth), Low salt (Fusarium culmorum; low salt medium): 1 µg/mL
- IC50 (concentration required to cause 50% inhibition of fungal hyphal growth), High salt (Verticillium dahliae [1]; [3]): 15 µg/mL
- IC50 (concentration required to cause 50% inhibition of fungal hyphal growth), Low salt (Verticillium dahliae [1]; low salt medium): 4 µg/mL
- Lines with disease severity rated equal to or less than 30% (Verticillium dahliae [2]; AlfAFP1 expressing potato lines, 46 days post inoculation, controls 1 out of 21 and 1 out of 18): Thirteen out of 21
- Average Disease Severity (%) (46 Days Post Inoc.) (Verticillium dahliae [2]; average of 21 AlfAFP1 positive potato lines, non-expressors 62.7, vector control 62.2): 29.6%
- Disease severity less than that of the non-expressors or the vector controls (Verticillium dahliae [2]; average of 21 expressor lines versus 21 non-expressor lines or 18 vector control lines, 46 days post inoculation): 52%
